# Assay results reported in ChEMBL document CHEMBL3763061, “Inhibition of cancer cell invasion by new ((3,4-dihydroxy benzylidene)hydrazinyl)pyridine-3-sulfonamide analogs” (2016).
# The source made the active and inactive calls. The calls are words filed in the database; no cut-off is given here.
# How the values were obtained:
# A-375 [1] = test: Cytotoxicity against human A375 cells assessed as growth inhibition at 10 uM after 24 hrs by MTT assay relative to control; type: functional; conditions: A-375, 24 h, read-out: GI
# MDA-MB-231 [2] = test: Cytotoxicity against human MDA-MB-231 cells assessed as growth inhibition at 10 uM after 24 hrs by MTT assay relative to control; type: functional; conditions: MDA-MB-231, 24 h, read-out: GI
# MDA-MB-231 [3] = test: Antiinvasive activity against human MDA-MB-231 assessed as inhibition of tumor invasion cells by transwell invasion assay; type: functional, cell-based
# A-375 [4] = test: Inhibition of fibronectin expression in human A375 cells; type: functional, cell-based
# MDA-MB-231 [5] = test: Inhibition of N-cadherin expression in human MDA-MB-231 cells; type: functional, cell-based
# A-375 [6] = test: Inhibition of N-cadherin expression in human A375 cells; type: functional, cell-based
# MDA-MB-231 [7] = test: Inhibition of alpha-smooth muscle actin expression in human MDA-MB-231 cells; type: functional, cell-based
# A-375 [8] = test: Inhibition of vimentin expression in human A375 cells; type: functional, cell-based
# MDA-MB-231 [9] = test: Inhibition of vimentin expression in human MDA-MB-231 cells; type: functional, cell-based
# A-375 [10] = test: Inhibition of alpha-smooth muscle actin expression in human A375 cells; type: functional, cell-based
# MDA-MB-231 [11] = test: Inhibition of collagen expression in human MDA-MB-231 cells; type: functional, cell-based
# A-375 [12] = test: Antimigratory activity against human A375 cells assessed as inhibition of cell migration by wound scratch assay; type: functional, cell-based
# A-375 [13] = test: Antiinvasive activity against human A375 cells assessed as inhibition of tumor invasion by transwell invasion assay; type: functional, cell-based
# MDA-MB-231 [14] = test: Antimigratory activity against human MDA-MB-231 cells assessed as density of migrated cells in scratched areas by wound scratch assay; type: functional, cell-based
# A-375 [15] = test: Inhibition of collagen expression in human A375 cells; type: functional, cell-based
# MDA-MB-231 [16] = test: Inhibition of Rab27a expression in human MDA-MB-231 cells; type: functional, cell-based
# MDA-MB-231 [17] = test: Inhibition of fibronectin expression in human MDA-MB-231 cells; type: functional, cell-based
# A-375 [18] = test: Inhibition of Rab27a expression in human A375 cells; type: functional, cell-based
smiles,measurement,setting,value
COCCNS(=O)(=O)c1ccc(N/N=C/c2ccc(O)c(O)c2)nc1,inhibition of growth at 10 µM,A-375 [1],-11.4%
same,inhibition of growth at 10 µM,MDA-MB-231 [2],-9.95%
O=S(=O)(Nc1ccc(O)cc1)c1ccc(N/N=C/c2ccc(O)c(O)c2)nc1,inhibition of growth at 10 µM,A-375 [1],-15.1%
same,inhibition of growth at 10 µM,MDA-MB-231 [2],-1.92%
O=S(=O)(c1ccc(N/N=C/c2ccc(O)c(O)c2)nc1)N1CCOCC1,inhibition of growth at 10 µM,A-375 [1],-9.25%
same,inhibition of growth at 10 µM,MDA-MB-231 [2],-5.98%
CN(C)S(=O)(=O)c1ccc(N/N=C/c2ccc(O)c(O)c2)nc1,inhibition of growth at 10 µM,A-375 [1],1.44%
same,inhibition of growth at 10 µM,MDA-MB-231 [2],4.81%
CCOC(=O)CN(C)S(=O)(=O)c1ccc(N/N=C/c2ccc(O)c(O)c2)nc1,inhibition of growth at 10 µM,A-375 [1],-13.7%
same,inhibition of growth at 10 µM,MDA-MB-231 [2],0.97%
C[C@@H](NS(=O)(=O)c1ccc(N/N=C/c2ccc(O)c(O)c2)nc1)C1CCCCC1,inhibition of growth at 10 µM,A-375 [1],3.45%
same,inhibition of growth at 10 µM,MDA-MB-231 [2],-25.8%
O=S(=O)(NCc1cccc2ccccc12)c1ccc(N/N=C/c2ccc(O)c(O)c2)nc1,inhibition of growth at 10 µM,A-375 [1],-13.8%
same,inhibition of growth at 10 µM,MDA-MB-231 [2],-21%
O=S(=O)(Nc1cccc(Cl)c1)c1ccc(N/N=C/c2ccc(O)c(O)c2)nc1,inhibition,MDA-MB-231 [3],Active
same,inhibition,A-375 [4],inactive
same,inhibition,MDA-MB-231 [5],Active
same,inhibition,A-375 [6],Active
same,inhibition,MDA-MB-231 [7],inactive
same,inhibition,A-375 [8],Active
same,inhibition,MDA-MB-231 [9],Active
same,inhibition,A-375 [10],inactive
same,inhibition of growth at 10 µM,A-375 [1],71.7%
same,inhibition,MDA-MB-231 [11],inactive
same,inhibition,A-375 [12],Active
same,inhibition,A-375 [13],Active
same,Activity,MDA-MB-231 [14],Active
same,inhibition,A-375 [15],inactive
same,inhibition of growth at 10 µM,MDA-MB-231 [2],26.3%
same,inhibition,MDA-MB-231 [16],Active
same,inhibition,MDA-MB-231 [17],inactive
same,inhibition,A-375 [18],Active
O=S(=O)(c1ccc(N/N=C/c2ccc(O)c(O)c2)nc1)N1CCC(O)CC1,inhibition of growth at 10 µM,A-375 [1],-14.1%
same,inhibition of growth at 10 µM,MDA-MB-231 [2],-15.8%
CN(Cc1ccccc1)S(=O)(=O)c1ccc(N/N=C/c2ccc(O)c(O)c2)nc1,inhibition,MDA-MB-231 [3],Active
same,inhibition,A-375 [4],Active
same,inhibition,MDA-MB-231 [5],Active
same,inhibition,A-375 [6],Active
same,inhibition,MDA-MB-231 [7],Active
same,inhibition,A-375 [8],Active
same,inhibition,MDA-MB-231 [9],Active
same,inhibition,A-375 [10],Active
same,inhibition of growth at 10 µM,A-375 [1],49.4%
same,inhibition,MDA-MB-231 [11],Active
same,inhibition,A-375 [12],Active
same,inhibition,A-375 [13],Active
same,Activity,MDA-MB-231 [14],Active
same,inhibition,A-375 [15],Active
same,inhibition of growth at 10 µM,MDA-MB-231 [2],24.6%
same,inhibition,MDA-MB-231 [16],Active
same,inhibition,MDA-MB-231 [17],Active
same,inhibition,A-375 [18],Active
O=S(=O)(Nc1cc(Cl)ccc1O)c1ccc(N/N=C/c2ccc(O)c(O)c2)nc1,inhibition of growth at 10 µM,A-375 [1],-3.03%
same,inhibition of growth at 10 µM,MDA-MB-231 [2],7.47%
O=S(=O)(c1ccc(N/N=C/c2ccc(O)c(O)c2)nc1)N1CCc2ccccc2C1,inhibition,MDA-MB-231 [3],inactive
same,inhibition,A-375 [4],inactive
same,inhibition,MDA-MB-231 [5],inactive
same,inhibition,A-375 [6],inactive
same,inhibition,MDA-MB-231 [7],inactive
same,inhibition,A-375 [8],Active
same,inhibition,MDA-MB-231 [9],Active
same,inhibition,A-375 [10],inactive
same,inhibition of growth at 10 µM,A-375 [1],8.41%
same,inhibition,MDA-MB-231 [11],inactive
same,inhibition,A-375 [12],inactive
same,inhibition,A-375 [13],inactive
same,Activity,MDA-MB-231 [14],inactive
same,inhibition,A-375 [15],inactive
same,inhibition of growth at 10 µM,MDA-MB-231 [2],14.9%
same,inhibition,MDA-MB-231 [17],inactive
O=S(=O)(c1ccc(N/N=C/c2ccc(O)c(O)c2)nc1)N1CCCC1,inhibition of growth at 10 µM,A-375 [1],-2.01%
same,Activity,MDA-MB-231 [14],Active
same,inhibition of growth at 10 µM,MDA-MB-231 [2],-13.6%
CN1CCN(S(=O)(=O)c2ccc(N/N=C/c3ccc(O)c(O)c3)nc2)CC1,inhibition of growth at 10 µM,A-375 [1],1.29%
same,inhibition of growth at 10 µM,MDA-MB-231 [2],2.1%
O=S(=O)(c1ccc(N/N=C/c2ccc(O)c(O)c2)nc1)N1CCCCC1,inhibition of growth at 10 µM,A-375 [1],5.06%
same,Activity,MDA-MB-231 [14],Active
same,inhibition of growth at 10 µM,MDA-MB-231 [2],-15.6%
